The text below walks through data of ChEMBL document CHEMBL1201862, “PubChem BioAssay data set” (2004).

Common to all, as to experiment: NCI-60 cell line screen, 48 h
Assay [1] has as its system SF-539.
The subject of assay [2] is RPMI-8226.
The subject of assay [3] is M14.
Assay [4] has as its system IGROV-1.
Assay [5] deals with 786-0.
Assay [6] concerns K562.
Assay [7] has as its system SF-295.
The test system of assay [8] is UO-31.
Assay [9] has as its system PC-3.
In assay [10] the test system is Malme-3M.
The test system of assay [11] is SK-MEL-28.
Assay [12] relates to CCRF-CEM.
Assay [13] deals with HOP-62.
In assay [14] the test system is HT-29.
The test system of assay [15] is NCI-H23.
Assay [16] deals with SN12C.
Assay [17] deals with SF-268.
The test system of assay [18] is OVCAR-5.
The subject of assay [19] is ACHN.

Molecules are shown by their SMILES.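 Results reflect a 48-hour exposure of cells in 96-well plates to compound at five concentrations. Abbreviation: GI50, concentration required for 50% inhibition of growth.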 Active and inactive are the calls of the source. Rule as the data show it: active = GI50 up to about 1.1 µM and inactive = higher.

As for `CCOC(=O)c1c(-c2ccccc2)nc2c(OC)nccn12`, the GI50 in [1], in assay [2], in [3], in assay [4], in assay [5] and in assay [6] was > 100 µM (inactive) each time. In addition, the GI50 in assay [7] is > 100 µM (inactive); in [8] it was 20.5 µM (inactive); in assay [9], > 100 µM (inactive); in assay [10] it was > 100 µM (inactive); in assay [11], > 100 µM (inactive); in assay [12] it was > 100 µM (inactive). For the same compound, the GI50 in assay [13], in assay [14], in [15], in [16] and in assay [17] was > 100 µM (inactive) each time.

`N#C/C(=C\c1ccccc1)c1nc(-c2cc3ccccc3oc2=O)cs1`: the GI50 in assay [1] was 58.5 µM (inactive); in [2], > 100 µM (inactive); in assay [3], > 100 µM (inactive); in assay [4], 48.5 µM (inactive); in assay [5] it was 53.5 µM (inactive); in assay [6] it was > 100 µM (inactive). Besides, the GI50 in assay [18] is > 100 µM (inactive); in assay [7], > 100 µM (inactive); in assay [8], 93.1 µM (inactive); in [9] it was > 100 µM (inactive); in [10], > 100 µM (inactive); in assay [11], > 100 µM (inactive). Moreover, the GI50 in assay [12] was > 100 µM (inactive); in [13], 30.9 µM (inactive); in assay [14], > 100 µM (inactive); in assay [19], 38.6 µM (inactive); in [16], > 100 µM (inactive); in [17], 60 µM (inactive).

As to `CC1(C)N=c2[nH]cnc2=C(C(N)=O)N1`, the GI50 in [1], in [2], in assay [3], in [4], in assay [5] and in assay [6] was > 100 µM (inactive) in each case. Further, the GI50 in assay [18], in [7], in assay [9], in [10], in assay [11] and in assay [12] was > 100 µM (inactive) throughout. For the same compound, the GI50 in assay [13], in assay [14], in assay [15], in [19], in assay [16] and in assay [17] was > 100 µM (inactive) in each case.

As for `c1ccc2c(c1)SC1=C(SC(=C3SC4=C(S3)Sc3ccccc3S4)S1)S2`, the GI50 in assay [1] is > 100 µM (inactive); in [2], > 100 µM (inactive); in [3], > 100 µM (inactive); in [4] it was > 100 µM (inactive); in [5], 91 µM (inactive); in [18], > 100 µM (inactive). The GI50 in assay [7], in [8], in [9], in assay [10], in [11] and in [12] was > 100 µM (inactive) each time. Besides, the GI50 in [13] was 36.9 µM (inactive); in assay [14], > 100 µM (inactive); in assay [15], > 100 µM (inactive); in [19], > 100 µM (inactive); in assay [16], > 100 µM (inactive); in assay [17], > 100 µM (inactive).

Regarding `Cc1cc(O)c(C(C)C)cc1C1(c2cc(C(C)C)c(O)cc2C)OC(=O)c2ccccc21`, the GI50 was 1.79 µM (inactive) in [1]; 1.21 µM (inactive) in [2]; 1.82 µM (inactive) in assay [3]; 2.81 µM (inactive) in [4]; 2.4 µM (inactive) in assay [5]; 1.19 µM (inactive) in [6]. The GI50 in assay [18] was 2.38 µM (inactive); in assay [7], 1.78 µM (inactive); in assay [8] it was 2.56 µM (inactive); in assay [9], 2.26 µM (inactive); in assay [10] it was 2.21 µM (inactive); in assay [11], 1.6 µM (inactive). Also, the GI50 in assay [13] was 2.76 µM (inactive); in assay [14] it was 2.39 µM (inactive); in [15] it was 2.12 µM (inactive); in assay [19], 2.62 µM (inactive); in [16] it was 2.02 µM (inactive); in [17], 2.1 µM (inactive).

Turning to `COC1(C)/C=N/CC(C)(C)NC(=O)C(C)(OC)/C=N/CC(C)(C)NC1=O` (stereo not drawn), the GI50 in assay [1], in [2], in [3], in assay [4], in assay [5] and in assay [6] was > 10 µM (inactive) in each case. Further, the GI50 in assay [7], in assay [9], in [10], in assay [11], in [12] and in assay [13] was > 10 µM (inactive) throughout. For the same compound, the GI50 in [14], in assay [15], in assay [19], in assay [16] and in assay [17] was > 10 µM (inactive) throughout.

Consider `COc1ccc(-n2cnc3c2=NC(C)(C)NC=3C(N)=O)c(OC)c1`, for which the GI50 in [1], in [2], in assay [3], in assay [4], in assay [5] and in [6] was > 100 µM (inactive) each time. The GI50 in [18], in assay [7], in assay [9], in assay [10], in assay [11] and in assay [12] was > 100 µM (inactive) in each case. The GI50 in assay [13], in [14], in [15], in assay [19], in [16] and in [17] was > 100 µM (inactive) in each case.

Regarding `CC(C)(O)C1CC[C@]2(C)[C@H]3CC[C@@H]4[C@@]5(C)CCCC(C)(C)[C@@H]5CC[C@@]4(C)[C@]3(C)CC[C@@H]12` (stereo partly drawn), the GI50 in assay [1], in assay [2], in [3], in assay [4], in [5] and in assay [18] was > 100 µM (inactive) each time. The GI50 in [7], in assay [9], in [10], in [11], in assay [12] and in assay [13] was > 100 µM (inactive) throughout. The GI50 in assay [14], in [15], in assay [19], in assay [16] and in assay [17] was > 100 µM (inactive) each time.

Consider `O=[N+]([O-])/C=C/c1cc(Cl)c(/C=C/[N+](=O)[O-])cc1Cl`, for which the GI50 in [1] was 1.86 µM (inactive); in assay [2], 1.25 µM (inactive); in assay [3] it was 1.87 µM (inactive); in assay [4], 3.29 µM (inactive); in [5], 1.16 µM (inactive); in assay [18] it was 1.52 µM (inactive). In addition, the GI50 in assay [7] is 4.68 µM (inactive); in [8] it was 1.49 µM (inactive); in assay [9], 2.55 µM (inactive); in assay [10], 1.91 µM (inactive); in assay [11], 1.68 µM (inactive); in [12] it was 0.8 µM (active). Also, the GI50 in [13] was 3.77 µM (inactive); in assay [14], 2.5 µM (inactive); in assay [15], 2.61 µM (inactive); in assay [19] it was 1.57 µM (inactive); in [16] it was 1.8 µM (inactive); in [17], 2.66 µM (inactive).

For the compound `C/C(=N\NC(=O)/C(C#N)=C\c1ccc(N(CCC#N)CCC#N)cc1)c1ccccc1`, the GI50 in assay [1], in [2], in [3], in assay [4], in assay [5] and in assay [7] was > 10 µM (inactive) in each case. For the same compound, the GI50 in assay [8], in assay [9], in [10], in [11], in assay [13] and in assay [14] was > 10 µM (inactive) in each case. The GI50 in [15], in assay [19], in assay [16] and in [17] was > 10 µM (inactive) in each case.

Take `Nc1c(C(=O)O)nnc2ccc(Cl)cc12`: the GI50 in assay [1], in [2], in assay [3], in assay [4], in assay [5] and in assay [6] was > 100 µM (inactive) each time. The GI50 in [18] was > 100 µM (inactive); in assay [7], > 100 µM (inactive); in [8] it was 94.8 µM (inactive); in [9], > 100 µM (inactive); in [10], > 100 µM (inactive); in [12], > 100 µM (inactive). For the same compound, the GI50 in [13], in assay [14], in assay [15], in assay [19], in assay [16] and in assay [17] was > 100 µM (inactive) throughout.
